Data: patent US9328138B2 (priority 2011, dated 2016)

Key:
[1] = target: HCV NS3 protease genotype 3a (3A-1) (Hepatitis C virus genotype 3a, UniProt Q81258); experiment: HCV NS3 protease time-resolved fluorescence (TRF) assay, genotype 3a; format: biochemical; details: Ki 3a
In short: (§1)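 Assay buffer: 50 mM HEPES pH 7.5, 150 mM NaCl, 0.1% PEG 8000, 0.15% Triton X-100. Ten-minute enzyme–inhibitor preincubation; substrate at 25 nM final; 6 h reaction, room temperature; signal/background set at 5-20 by enzyme amount.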

[2] = target: T1, HCV genotype 1b (BK) NS3 modified enzyme with a R155K mutation (Hepatitis C virus genotype 1b, UniProt P26663, R1181K); experiment: HCV NS3 protease time-resolved fluorescence (TRF) assay, genotype 1b R155K; format: biochemical; details: Ki 1b R155K, genotype 1b (BK) NS3 R155K; single value
T1 construct: HCV genotype 1b (BK) NS3 modified enzyme
In short: as §1

| Structure (SMILES) | Ki [1] [nM] | Ki [2] [nM] |
| --- | --- | --- |
| C=C[C@@H]1C[C@]1(NC(=O)[C@@H]1C[C@@H]2CN1C(=O)[C@H](C(C)(C)C)NC(=O)O[C@@H]1C[C@H]1CCCCCc1c(nc3ccccc3c1OCCNC1CC1)O2)C(=O)NS(=O)(=O)C1(C)CC1 [Example 178, (1aR,5S,8S,10R,22aR)-5-tert-butyl-17-[2-(cyclopropylamino)ethoxy]-N-[(1R,2S)-2-ethenyl-1-{[(1-methylcyclopropyl)sulfonyl]carbamoyl}cyclopropyl]-3,6-dioxo-1,1a,3,4,5,6,9,10, 18,19,20,21,22,22a-tetradeca hydro-8H-7,10-methanocyclopropa[18,19][1,10,3,6] dioxadiazacyclononadecino[11,12-b] quinoline-8-carboxamide] | 3.6 | 0.14 |
| C=C[C@@H]1C[C@]1(NC(=O)[C@@H]1C[C@@H]2CN1C(=O)[C@H](C(C)(C)C)NC(=O)O[C@@H]1C[C@H]1CCCCCc1c(nc3ccccc3c1OCCCNC(C)COC)O2)C(=O)NS(=O)(=O)C1(C)CC1 (stereo partly drawn) [Example 179, (1aR,5S,8S,10R,22aR)-5-tert-butyl-N-[(1R,2S)-2-ethenyl-1-{[(1-methylcyclopropyl)sulfonyl]carbamoyl}cyclopropyl]-17-{3-[(1-methoxypropan-2-yl)amino]propoxy}-3,6-dioxo-1,1a,3,4,5,6,9,10,18,19,20,21,22,22a-tetradecahydro-8H-7,10-methanocyclopropa[18,19][1,10,3,6] dioxadiazacyclononadecino[11,12-b] quinoline-8-carboxamide] | 0.58 | 0.034 |
| C=C[C@@H]1C[C@]1(NC(=O)[C@@H]1C[C@@H]2CN1C(=O)[C@H](C(C)(C)C)NC(=O)O[C@@H]1C[C@H]1CCCCCc1c(nc3ccccc3c1OCCCNC1CCC1)O2)C(=O)NS(=O)(=O)C1(C)CC1 [Example 180, (1aR,5S,8S,10R,22aR)-5-tert-butyl-17-[3-(cyclobutylamino)propoxy]-N-[(1R,2S)-2-ethenyl-1-{[(1-methylcyclopropyl)sulfonyl]carbamoyl}cyclopropyl]-3,6-dioxo-1,1a,3,4,5,6,9,10, 18,19,20,21,22,22a-tetradeca hydro-8H-7,10-methanocyclopropa[18,19][1,10,3,6] dioxadiazacyclononadecino[11,12-b] quinoline-8-carboxamide] | 0.58 | 0.037 |
| C=C[C@@H]1C[C@]1(NC(=O)[C@@H]1C[C@@H]2CN1C(=O)[C@H](C(C)(C)C)NC(=O)O[C@@H]1C[C@H]1CCCCCc1c(nc3ccccc3c1OCCCNC1CCOCC1)O2)C(=O)NS(=O)(=O)C1(C)CC1 [Example 181, (1aR,5S,8S,10R,22aR)-5-tert-butyl-N-[(1R,2S)-2-ethenyl-1-{[(1-methylcyclopropyl)sulfonyl]carbamoyl}cyclopropyl]-3,6-dioxo-17-[3-(tetrahydro-2H-pyran-4-ylamino)propoxy]-1,1a,3,4,5,6,9,10,18, 19,20,21,22,22a-tetradecahydro-8H-7,10-methanocyclopropa[18,19][1,10,3,6] dioxadiazacyclononadecino[11,12-b] quinoline-8-carboxamide] | 0.78 | 0.065 |
| C=C[C@@H]1C[C@]1(NC(=O)[C@@H]1C[C@@H]2CN1C(=O)[C@H](C(C)(C)C)NC(=O)O[C@@H]1C[C@H]1CCCCCc1c(nc3ccccc3c1OCCCNC1CCCC1)O2)C(=O)NS(=O)(=O)C1(C)CC1 [Example 182, (1aR,5S,8S,10R,22aR)-5-tert-butyl-17-[3-(cyclopentylamino)propoxy]-N-[(1R,2S)-2-ethenyl-1-{[(1-methylcyclopropyl)sulfonyl]carbamoyl}cyclopropyl]-3,6-dioxo-1,1a,3,4,5,6,9,10, 18,19,20,21,22,22a-tetradecahydro-8H-7,10-methanocyclopropa[18,19][1,10,3,6] dioxadiazacyclononadecino[11,12-b] quinoline-8-carboxamide] | 0.61 | 0.064 |
| C=C[C@@H]1C[C@]1(NC(=O)[C@@H]1C[C@@H]2CN1C(=O)[C@H](C(C)(C)C)NC(=O)O[C@@H]1C[C@H]1CCCCCc1c(nc3ccccc3c1OCCCNC1CC1)O2)C(=O)NS(=O)(=O)C1(C)CC1 [Example 183, (1aR,5S,8S,10R,22aR)-5-tert-butyl-17-[3-(cyclopropylamino)propoxy]-N-[(1R,2S)-2-ethenyl-1-{[(1-methylcyclopropyl)sulfonyl]carbamoyl}cyclopropyl]-3,6-dioxo-1,1a,3,4,5,6,9,10, 18,19,20,21,22,22a-tetradeca hydro-8H-7,10-methanocyclopropa[18,19][1,10,3,6] dioxadiazacyclononadecino[11,12-b] quinoline-8-carboxamide] | 0.95 | 0.07 |
| C=C[C@@H]1C[C@]1(NC(=O)[C@@H]1C[C@@H]2CN1C(=O)[C@H](C(C)(C)C)NC(=O)O[C@@H]1C[C@H]1CCCCCc1c(nc3ccccc3c1OCCCN1CC(C#N)C1)O2)C(=O)NS(=O)(=O)C1(C)CC1 [Example 184, (1aR,5S,8S,10R,22aR)-5-tert-butyl-17-[3-(3-cyanoazetidin-1-yl)propoxy]-N-[(1R,2S)-2-ethenyl-1-{[(1-methylcyclopropyl)sulfonyl]carbamoyl}cyclopropyl]-3,6-dioxo-1,1a,3,4,5,6,9,10, 18,19,20,21,22,22a-tetradecahydro-8H-7,10-methanocyclopropa[18,19][1,10,3,6] dioxadiazacyclononadecino[11,12-b] quinoline-8-carboxamide] | 1.1 | 0.057 |
| C=C[C@@H]1C[C@]1(NC(=O)[C@@H]1C[C@@H]2CN1C(=O)[C@H](C(C)(C)C)NC(=O)O[C@@H]1C[C@H]1CCCCCc1c(nc3ccccc3c1OCCCNC(C)C)O2)C(=O)NS(=O)(=O)C1(C)CC1 [Example 185, (1aR,5S,8S,10R,22aR)-5-tert-butyl-N-[(1R,2S)-2-ethenyl-1-{[(1-methylcyclopropyl)sulfonyl]carbamoyl}cyclopropyl]-3,6-dioxo-17-[3-(propan-2-ylamino)propoxy]-1,1a,3,4,5,6,9,10,18,19,20,21,22,22a-tetradecahydro-8H-7,10-methanocyclopropa[18,19][1,10,3,6] dioxadiazacyclononadecino[11,12-b] quinoline-8-carboxamide] | 0.36 | 0.032 |
| C=C[C@@H]1C[C@]1(NC(=O)[C@@H]1C[C@@H]2CN1C(=O)[C@H](C(C)(C)C)NC(=O)O[C@@H]1C[C@H]1CCCCCc1c(nc3ccccc3c1OCCCN(CCOC)CCOC)O2)C(=O)NS(=O)(=O)C1(C)CC1 [Example 186, (1aR,5S,8S,10R,22aR)-17-{3-[bis(2-methoxyethyl)amino]propoxy}-5-tert-butyl-N-[(1R,2S)-2-ethenyl-1-{[(1-methylcyclopropyl)sulfonyl]carbamoyl}cyclopropyl]-3,6-dioxo-1,1a,3,4,5,6,9,10, 18,19,20,21,22,22a-tetradecahydro-8H-7,10-methanocyclopropa[18,19][1,10,3,6] dioxadiazacyclononadecino[11,12-b] quinoline-8-carboxamide] | 1.9 | 0.078 |
| C=C[C@@H]1C[C@]1(NC(=O)[C@@H]1C[C@@H]2CN1C(=O)[C@H](C(C)(C)C)NC(=O)O[C@@H]1C[C@H]1CCCCCc1c(nc3ccccc3c1OCCCN(CCO)Cc1ccccc1)O2)C(=O)NS(=O)(=O)C1(C)CC1 [Example 187, (1aR,5S,8S,10R,22aR)-17-{3-[benzyl(2-hydroxyethyl)amino]propoxy}-5-tert-butyl-N-[(1R,2S)-2-ethenyl-1-{[(1-methylcyclopropyl)sulfonyl]carbamoyl}cyclopropyl]-3,6-dioxo-1,1a, 3,4,5,6,9,10,18,19,20,21,22,22a-tetradecahydro-8H-7,10-methanocyclopropa[18,19][1,10,3,6] dioxadiazacyclononadecino[11,12-b] quinoline-8-carboxamide] | 6.1 | 0.24 |
| C=C[C@@H]1C[C@]1(NC(=O)[C@@H]1C[C@@H]2CN1C(=O)[C@H](C(C)(C)C)NC(=O)O[C@@H]1C[C@H]1CCCCCc1c(nc3ccccc3c1OCCCN(CC(O)c1ccc(O)c(O)c1)C(C)C)O2)C(=O)NS(=O)(=O)C1(C)CC1 (stereo partly drawn) [Example 188, (1aR,5S,8S,10R,22aR)-5-tert-butyl-17-(3-{[2-(3,4-dihydroxyphenyl)-2-hydroxyethyl](propan-2-yl)amino}propoxy)-N-[(1R,2S)-2-ethenyl-1-{[(1-methylcyclopropyl)sulfonyl]carbamoyl}cyclopropyl]-3,6-dioxo-1,1a,3,4,5,6,9,10,18,19,20, 21,22,22a-tetradecahydro-8H-7,10-methanocyclopropa[18,19][1,10,3,6] dioxadiazacyclononadecino[11,12-b] quinoline-8-carboxamide] | 0.85 | 0.033 |
| C=C[C@@H]1C[C@]1(NC(=O)[C@@H]1C[C@@H]2CN1C(=O)[C@H](C(C)(C)C)NC(=O)O[C@@H]1C[C@H]1CCCCCc1c(nc3ccccc3c1OCCCNCCc1cccc3ccccc13)O2)C(=O)NS(=O)(=O)C1(C)CC1 [Example 189, (1aR,5S,8S,10R,22aR)-5-tert-butyl-N-[(1R,2S)-2-ethenyl-1-{[(1-methylcyclopropyl)sulfonyl]carbamoyl}cyclopropyl]-17-(3-{[2-(naphthalen-1-yl)ethyl]amino}propoxy)-3,6-dioxo-1,1a,3,4,5,6,9,10,18,19,20, 21,22,22a-tetradecahydro-8H-7,10-methanocyclopropa[18,19][1,10,3,6] dioxadiazacyclononadecino[11,12-b] quinoline-8-carboxamide] | 3.4 | 0.081 |
